Reference: PMC10412585 (Nature Communications, 2023)
“Also recorded” adds a separate entry of the source. Read-outs that look alike come from different tables or passages of the source.

Tests used:
Type in all cases: cell-based, human
HLA-E = HLA-E surface stabilization assay with RMA-S/HLA-E cells; conditions: peptide 3-300 µM (Fig. 3: 30 µM) in OptiMEM, 16 h, 37 °C, anti-HLA-E 3D12, flow cytometry, n = 4 replicate experiments
Method: To probe top-predicted proteome-derived peptides (Tables 2 and 3) for HLA-E binding, we assessed their ability to stabilize surface-expressed HLA-E on RMA-S/HLA-E cells, a TAP-deficient mouse cell line engineered to express HLA-E and human β2M (Fig. 3 and Supplemental Fig. 8)[47].
Fig. 3 Peptide stabilization of HLA-E surface expression. Assessment of peptide-HLA-E binding via HLA-E surface stabilization assay with RMA-S/HLA-E cells incubated with 30 μM peptide. HLA-E expression is detected with an anti-HLA-E antibody. Measurements from n = 4 replicate experiments are shown, with solid black lines indicating mean values. […] Source data are provided as a Source Data file.
RMA-S/HLA-E cells were incubated with serial dilutions of peptides (3–300 µM, Genscript) in OptiMEM (ThermoFisher) for 16 h at 37 °C. Cells were washed with PBS, stained for HLA-E (Clone 3D12, Biolegend, 1:200 dilution) for 15 min at room temperature and analyzed by flow cytometry (analysis in FlowJo version 10). Peptide UBAC2_275-279 was ordered as a 5mer peptide (WNRLF) given the similarity with other WN peptides and hypothesis of a truncated peptide binding in the HLA-E groove. […] Measurements from replicate experiments are plotted in Fig. 3 and Supplemental Fig. 8.

NKG2A-/NKG2C+ NK cells = experiment: NK cell activation assay with peptide-pulsed K562/HLA-E cells, NKG2A-/NKG2C+ NK cells; conditions: K562/HLA-E target cells, 300 µM peptide ([…] µM BFAR263-271), E:T 2:1, 6 h; degranulation (CD107a), IFN-γ, TNF, CCL3; flow cytometry
Method: (§1) We hypothesized that our predicted proteome-derived peptides could affect NK cell activation through interactions with CD94/NKG2A and CD94/NKG2C. To investigate, we performed cell-based activation assays on primary NK cells (Fig. 4A). NK cells were co-incubated with peptide-pulsed HLA-E-expressing K562 cells, as described previously. The parental K562 human myelogenous leukemia cell line is a typical target to measure NK cell cytotoxicity and activation, allowing for assessment of both NKG2A-mediated inhibition and NKG2C-mediated activation. […] NKG2A^-/NKG2C^- NK cells served as internal control as these should be unaffected by peptide-HLA-E complexes (Supplemental Fig. 12).
(§2) Fig. 4 NK cell stimulation assays. Assessment of effects of peptides on NK cell activity through incubation of NK cells, peptides, and (A) K562/HLA-E or (B) RMA-S/HLA-E target cells. […] Replicates for individual peptides are from different donors, with solid black lines indicating mean values. […] Representative gating for NKG2A^+/NKG2C^- and NKG2A^-/NKG2C^+ NK cells is shown in Supplemental Fig. 14. Source data are provided as a Source Data file.
(§3) All analyses of human data were carried out in compliance with the relevant ethical regulations. Healthy blood donors gave informed consent at DRK Blutspendedienst Nord-Ost, Dresden, Germany, and buffy coats were obtained as approved by Charité ethics committee (EA4/059/17). PBMCs were isolated from human CMV-seropositive buffy coats by density centrifugation over Ficoll Paque Plus (GE Healthcare) and screened for the presence of NKG2C^+ NK cell expansions by flow cytometry to have sufficient frequencies of single-positive cells for parallel assessment of activation and inhibition via HLA-E[47]. Total NK cells from donors with NKG2C^+ expansions (>10% NKG2A^-/NKG2C^+ NK cells) were enriched with CD56 microbeads (Miltenyi Biotec) and cryopreserved in FBS with 10% v/v DMSO. After thawing, NK cells were washed with complete medium, stained with antibodies and Fixable Viability Dye eFluor 780 (Thermo Fisher) for 15 min at 4 °C in PBS, sorted as viable CD56^+ CD3^− cells, and rested in complete media overnight. […] Brefeldin A and Monensin (BD Biosciences) were added after a 1 h culture period. After an additional 5 h, the stimulation was stopped by centrifugation at 4 °C. Cells underwent surface staining, followed by fixation and intracellular staining using Inside Stain Kit (Miltenyi Biotec). Samples were analyzed by flow cytometry on an LSR Fortessa (BD Biosciences). Inhibition of NKG2A^+ NK cells and activation of NKG2C^+ NK cells was assessed by gating on the respective single-positive populations (Supplemental Fig. 14). Antibodies are listed in Supplemental Table 1: anti-human CD56 PE/Dazzle 594 (1:200 dilution), CD3 APC-eFluor 780 (1:50 dilution), anti-human CD159a (NKG2A) Biotin REAfinity (1:50 dilution), anti-human CD159c (NKG2C) PE REAfinity (1:100 dilution), anti-human CD107a (LAMP-1) Alexa Fluor 488 (1:400 dilution), anti-human IFN-γ PE-Vio 770 REAfinity (1:50 dilution), anti-human TNF-α Brilliant Violet 605 (1:50 dilution), anti-human CCL3 (MIP-1α) REAfinity (1:25 dilution).

NKG2C+ NK cells = experiment: NK cell activation assay with peptide-pulsed RMA-S/HLA-E cells; conditions: for average percent CD107a+: NKG2C+ NK cells with RMA-S/HLA-E cells, Fig. 4B, stated in author rebuttal
Method: as §2
In contrast to K562 cell lines which are targets for human NK cells, RMA-S cells (a TAP-deficient mouse cell line)[48] are inert to human NK cells and thus will not activate NK cells absent engagement of an activating receptor on the NK cells. […] We performed additional NK cell activation assays with RMA-S/HLA-E cells (Fig. 4B).
as §3

NKG2A+/NKG2C- NK cells = experiment: NK cell activation assay with peptide-pulsed K562/HLA-E cells, NKG2A+/NKG2C- NK cells; conditions: K562/HLA-E target cells, 300 µM peptide ([…] µM BFAR263-271), E:T 2:1, 6 h; degranulation (CD107a), IFN-γ, TNF, CCL3; flow cytometry
Method: as §1, §2, §3

[1] = RMA-S/HLA-E target cells, 300 µM peptide ([…] µM BFAR263-271), E:T 2:1, 6 h, flow cytometry, n = 3 (n = 2 for some) donors

Substance	stabilization of HLA-E surface expression (HLA-E)	activating effects on NKG2C+ cells (NKG2A-/NKG2C+ NK cells)	NKG2C-mediated NK cell activation (NKG2C+ NK cells; [1])	inhibitory effects on NKG2A+ cells (NKG2A+/NKG2C- NK cells)	NKG2C-mediated NK cell activation (NKG2C+ NK cells)	average percent CD107a+ (NKG2C+ NK cells) [%]
WNRILPNAY [library-derived WN 9mer peptide (P1 Trp, P2 Asn)]	did not stabilize HLA-E surface	–	–	–	–	–
WNRILPN [length variant of WN peptide]	did not stabilize HLA-E surface	–	–	–	–	–
TLPKRGLFL [AKAP6_388-396, human peptide from A-kinase anchor protein 6]	strong binding that is weaker than VMAPRTLFL; also recorded: strong stabilization	strong activating effects	activation at the level of the strongest positive control binder (VMAPRTLFL)	more moderate inhibitory effects	–	–
VMADKSIFY [OR5D14_88-96, human peptide from Olfactory receptor 5D14]	no detectable binding; also recorded: no stabilizing effects	–	–	–	–	–
TAPARTMFL [PISD55-63, human peptide from Phosphatidylserine decarboxylase proenzyme, mitochondrial]	strong binding that is weaker than VMAPRTLFL; also recorded: strong stabilization	clear activating effects	–	minimal inhibitory effects	detectable activation, though below both positive control examples	7.8
WNRILPNA [length variant of WN peptide]	did not stabilize HLA-E surface	–	–	–	–	–
VMPPRTLLL [HLA-A3-11, human peptide from HLA class I histocompatibility antigen]	HLA-E stabilization matching VMAPRTLFL peptide; also recorded: strong stabilization	strong activating effects	–	strong inhibitory effects	activation similar to the weaker positive control ([…]) or between the two positive controls	–
WNRLF [UBAC2_275-279, UBAC2 peptide ordered and tested as a 5mer peptide (WNRLF)]	no detectable binding; also recorded: no stabilizing effects	–	–	–	–	–
SVPLKTRFL [UL120_71-79, BE/33/2010, divergent UL120 peptide of CMV strain BE/33/2010]	weaker but detectable stabilization	minimal effects	–	minimal effects	–	–
TGAARSFFF [UL102_292-300, CMV peptide from DNA helicase/primase complex-associated protein]	no detectable binding; also recorded: no stabilizing effects	–	–	–	–	–
WNRILP [length variant of WN peptide]	did not stabilize HLA-E surface	–	–	–	–	–
VMGDRSVLY [EMC1_725-733, human peptide from ER membrane protein complex subunit 1]	no detectable binding; also recorded: no stabilizing effects	–	–	–	–	–
ILTDRSLWL [FBXO41_670-678, human peptide from F-box only protein 41]	strong binding that is weaker than VMAPRTLFL; also recorded: strong stabilization	strong activating effects	activation at the level of the strongest positive control binder (VMAPRTLFL)	more moderate inhibitory effects	–	–
NMPARTVLF [MTREX490-498, human peptide from Exosome RNA helicase MTR4]	strong binding that is weaker than VMAPRTLFL; also recorded: strong stabilization	strong activating effects	detectable activation, though below both positive control examples	strong inhibitory effects	–	–
VMAPQSLLL [negative control peptide, reference compound]	–	–	–	–	Minimal activation	1.1
RMPPRSVLL [INTS1_260-268, human peptide from Integrator complex subunit 1]	HLA-E stabilization matching VMAPRTLFL peptide; also recorded: strong stabilization	strong activating effects	–	strong inhibitory effects	–	–
FLPNRSLLF [SLC52A3_354-362, human peptide from Solute carrier family 52, riboflavin transporter, member 3]	strong binding that is weaker than VMAPRTLFL; also recorded: strong stabilization	strong activating effects	–	more moderate inhibitory effects	activation similar to the weaker positive control ([…]) or between the two positive controls	–
VMPGRTLCF [TACR3_226-234, human peptide from Neuromedin-K receptor]	HLA-E stabilization matching VMAPRTLFL peptide; also recorded: strong stabilization	strong activating effects	–	strong inhibitory effects	activation similar to the weaker positive control ([…]) or between the two positive controls	–
WNRIL [length variant of WN peptide]	did not stabilize HLA-E surface	–	–	–	–	–
VMAPRTLIL [canonical signal peptide / CMV UL40-derived HLA-E ligand; positive control, reference compound]	–	–	weaker positive control	–	–	–
TLPERTLYL [ECEL1_269-277, human peptide from Endothelin-converting enzyme-like 1]	HLA-E stabilization matching VMAPRTLFL peptide; also recorded: strong stabilization	strong activating effects	–	strong inhibitory effects	activation similar to the weaker positive control ([…]) or between the two positive controls	–
